Test [1] can be described thus: Growth inhibition of human MDA435/LCC6 cells after 72 hrs by SRB assay. The note with it: MDA-435/LCC6, 72 h. It counts as functional. A general note: In SRB staining, fixed cells bind dye roughly in proportion to their protein.
The subject of another test is MES-SA/Dx5. Nature of the test: Growth inhibition of human MES-SA/Dx5 cells after 72 hrs by SRB assay. It counts as functional, cell-based. The conditions noted are these: MES-SA/Dx5, 72 h.
The nature of test [2]: (§1) Binding affinity to P-gp (unknown origin). The arrangement: species or system Homo sapiens.
For a further test, the system named is HCT-116. Put plainly: Cytotoxicity against human HCT116 cells. It counts as functional, cell-based.
The species entered for a further test is Homo sapiens. The description is as §1.

pEC50, pIC50: −log10 of the molar value. Bounds are passed on as bounds.

Turning to `CC(=O)O[C@H]1C(=O)[C@@]2(C)[C@H]([C@H](OC(=O)c3ccccc3)[C@]3(O)C[C@H](OC(=O)[C@H](O)[C@@H](NC(=O)c4ccccc4)c4ccccc4)C(C)=C1C3(C)C)[C@]1(OC(C)=O)CO[C@@H]1C[C@@H]2O` [PACLITAXEL], the pIC50 was 6.46 in test [1] and 6.68 in the test with MES-SA/Dx5.
Take `COc1cc2c(cc1OC)CN(CCc1ccc(NC(=O)c3cc(OC)c(OC)cc3NC(=O)c3cnc4ccccc4c3)cc1)CC2` [TARIQUIDAR]: the negative-log EC50 (pEC50) in test [2] was over 7.00.
In the case of `CO[C@H]1C(=O)[C@]2(C)[C@@H](OC)C[C@H]3OC[C@@]3(OC(C)=O)[C@H]2[C@H](OC(=O)c2ccccc2)[C@]2(O)C[C@H](OC(=O)[C@H](O)[C@@H](NC(=O)OC(C)(C)C)c3ccccc3)C(C)=C1C2(C)C` [CABAZITAXEL], the pIC50 with MES-SA/Dx5 was 7.82.
`C/C(=C\c1csc(C)n1)[C@@H]1C/C=C\C/C=C\[C@H](C)[C@H](O)[C@@H](C)C(=O)C(C)(C)[C@@H](O)CC(=O)O1`: in the test with HCT-116, the negative logarithm of the IC50 (pIC50) was 9.39.
In test [2], `O[C@@H](COc1cccc2ncccc12)CN1CCN([C@@H]2c3ccccc3[C@@H]3[C@H](c4ccccc42)C3(F)F)CC1` [ZOSUQUIDAR] showed a negative-log EC50 (pEC50) of over 7.00.
As to `COc1ccc(CCN(C)CCCC(C#N)(c2ccc(OC)c(OC)c2)C(C)C)cc1OC` (stereo not drawn), the Activity in the test filed under Homo sapiens worked out at 10 µM.
In the test with HCT-116, `C/C(=C\c1csc(C)n1)[C@@H]1C[C@@H]2O[C@]2(C)CCC[C@H](C)[C@H](O)[C@@H](C)C(=O)C(C)(C)[C@@H](O)CC(=O)N1` [IXABEPILONE] showed a pIC50 of 8.59.

In general, pIC50 refers to the negative decadic logarithm of the IC50, by convention in mol/L. As a reminder, the pEC50 is the negative decadic logarithm of the EC50, by convention in mol/L. Low values mean a large EC50, high ones a small EC50.

Values taken from ChEMBL document CHEMBL4219050, “Inhibit or Evade Multidrug Resistance P-Glycoprotein in Cancer Treatment” (J Med Chem, 2018).
